One series deals with acetyl-α-tubulin. Put plainly: Western blot, acetylation of α-tubulin in Hela cells. The format is cell-based, human. The note with it: 5 μM, reference drug. The procedure:
(§1) Afterwards, the Hela cells were collected using centrifugation, and were then lysed by the lysate, which were carried out further centrifugation at 12,000 rpm for 30 min. The protein of supernatant obtained by centrifugation was quantified using the BCA kit (Beijing Solarbio Science & Technology Co., Ltd.), and the protein extracts were mixed with the SDS-PAGE protein loading buffer (Beijing Solarbio Science & Technology Co., Ltd.), which were subject to 100°C water bath for 10 min to sufficiently denaturate. The gel was gelatinized using the SDS Gel Kit (Beijing Solarbio Science & Technology Co., Ltd.) and protein extracts were separated by protein SDS-polyacrylamide gel electrophoresis and then transferred to Immobilon-NC Membrane (Beijing Solarbio Science & Technology Co., Ltd.). After the blocking with 5% non-fat dried milk in TBS for 90 min at room temperature, the membranes were incubated overnight with specific primary antibodies (AFFINITY BIOSCIENCE) at 4°C, which were further incubated with secondary antibodies for 2 h after washing three times with TBST. The chemiluminescence analysis system was applied to label the target protein with a specific primary antibody and the target protein was detected using a specific antibody.
Background: A western blot detects proteins with antibodies after separation by electrophoresis.

In a further series the test system is acetyl-histone H3. The series can be described thus: Western blot, acetylation of histone H3 in Hela cells. The note with it: 5 μM, reference drug. The series is classed as cell-based, human. The procedure: as §1
The subject of a further series is A549. Put plainly: MTT anti-proliferative assay, A549. The note with it: Homo sapiens, A549, 48 h, read-out: IC50 A549. On the technique in general: Formazan colour is commonly taken as a measure of viable cells.
The test system of another series is HepG2. The series can be described thus: MTT anti-proliferative assay, HepG2. The note with it: Homo sapiens, HepG2, 48 h, read-out: IC50 HepG2.
A further series has as its system MCF-7. The series can be described thus: MTT anti-proliferative assay, MCF-7. The note with it: Homo sapiens, MCF7, 48 h, read-out: IC50 MCF-7.
For the next series, the system named is Hela. Put plainly: MTT anti-proliferative assay, Hela. The note with it: Homo sapiens, 48 h, read-out: IC50 Hela.
The subject of the next series is WI-38. The series can be described thus: MTT cytotoxicity assay, normal cell line WI-38. The note with it: Homo sapiens, WI-38, 48 h, read-out: IC50 WI-38.

The source of these data is PMC7174758, “Synthesis and Biological Evaluation of HDAC Inhibitors With a Novel Zinc Binding Group” (Frontiers in Chemistry, 2020).

Method for A549: (§2) The antitumor bioactivities of the tittle compounds in vitro were firstly evaluated against four different human tumor cell lines [breast lung cancer (A549), cervical cancer (Hela), liver cancer (HepG2), breast cancer (MCF-7)] via MTT assay, and a normal cell line [human lung fibroblast (WI-38)] was applied to assess the safety of the synthesized compounds. […] In this study, the tested compounds were diluted to the required concentration with culture medium, and growth inhibitory effects against the cell lines of the tittle compounds were determined by MTT colorimetric assay. […] The microplate reader was adopted to record the absorbance at 490 nm for each well of the plates.
Method for HepG2: as §2
Method for MCF-7: as §2
Method for WI-38: as §2

With `O=C(CCCCCCC(=O)Nc1ccccc1)NO` [SAHA, suberoylanilide hydroxamic acid, reference compound], in the series on acetyl-α-tubulin, the “acetylation level of α-Tubulin” value is on record as “increase”. The “acetylation level of histone H3” value in the series on acetyl-histone H3 is listed as “up-regulated”.
As for `CC(O)CNC(=O)CCCCCNC(=O)c1ccc(F)cc1` (centres unmarked) [a1, 4-fluoro-N-(6-((2-hydroxypropyl)amino)-6-oxohexyl) benzamide], the melting point (usually the temperature of the solid-liquid transition) is 99.3 to 100.8 °C.
Turning to `CC(O)CNC(=O)CCCCCNC(=O)c1ccc(Cl)cc1` (centres unmarked) [a2, 4-chloro-N-(6-((2-hydroxypropyl)amino)-6-oxohexyl) benzamide], the melting point fell in the range of 93.9 to 95.7 °C.
`CC(O)CNC(=O)CCCCCNC(=O)c1ccccc1Cl` (centres unmarked) [a3, 2-chloro-N-(6-((2-hydroxypropyl)amino)-6-oxohexyl) benzamide]: the melting point lay in the range of 110.2 to 113.6 °C.
Take `CC(O)CNC(=O)CCCCCNC(=O)c1ccc(Br)cc1` (centres unmarked) [a4, 4-bromo-N-(6-((2-hydroxypropyl)amino)-6-oxohexyl) benzamide]: the melting point lay within 112.4 to 114.7 °C.
As for `CC(O)CNC(=O)CCCCCNC(=O)c1ccc(I)cc1` (centres unmarked) [a5, N-(6-((2-hydroxypropyl)amino)-6-oxohexyl)-4-iodobenzamide], the melting point lay in the range of 148.7 to 150.2 °C. In addition, the IC50 (commonly the concentration that inhibits the measured activity by half) in the series on A549 worked out at 45.6 ± 2.81 µM. Besides, in the series with HepG2, the IC50 was determined as 68.9 ± 1.95 µM. Further, in the series on MCF-7, the IC50 is 63.2 ± 4.32 µM. In addition, in the series with Hela, the IC50 was found to be 35.8 ± 2.43 µM. In addition, the IC50 in the series on WI-38 was determined as 158 ± 3.16 µM.
Compound `Cc1ccc(C(=O)NCCCCCC(=O)NCC(C)O)cc1` (centres unmarked) [a6, N-(6-((2-hydroxypropyl)amino)-6-oxohexyl)-4-methylbenzamide] had a melting point of 114.2 to 116.8 °C. Moreover, in the series on A549, the IC50 was 39.2 ± 3.88 µM. Also, the IC50 in the series with HepG2 stood at 74.9 ± 2.05 µM. In addition, the IC50 in the series on MCF-7 was determined as 44.8 ± 2.01 µM. Further, the IC50 in the series on Hela stood at 19.6 ± 3.92 µM. Moreover, the IC50 with WI-38 was determined as 97.2 ± 6.36 µM.
In turn, `CC(O)CNC(=O)CCCCCNC(=O)c1ccc([N+](=O)[O-])cc1` (centres unmarked) [a7, N-(6-((2-hydroxypropyl)amino)-6-oxohexyl)-4-nitrobenzamide] came in with a melting point of 124.3 to 126.1 °C. Moreover, the IC50 with A549 came to 43.8 ± 4.82 µM. Also, the IC50 in the series on HepG2 amounted to 88.3 ± 8.64 µM. In the series on MCF-7, the IC50 came out at 58.7 ± 3.86 µM. For the same compound, the IC50 in the series on Hela amounted to 25.8 ± 8.93 µM. Further, the IC50 with WI-38 came out at 211 ± 4.32 µM.
The compound `CC(O)CNC(=O)CCCCCNC(=O)c1ccc(C(F)(F)F)cc1` (centres unmarked) [a9, N-(6-((2-hydroxypropyl)amino)-6-oxohexyl)-4-(trifluoromethyl) benzamide] came in with a melting point of 106.3 to 108.1 °C.
`CC(O)CNC(=O)CCCCCNC(=O)c1ccc(-c2ccccc2)cc1` (centres unmarked) [a10, N-(6-((2-hydroxypropyl)amino)-6-oxohexyl)-[1, 1’-biphenyl]-4-carboxamide] returned a melting point of 140.3 to 142.6 °C. The IC50 in the series on A549 came out at 19.8 ± 2.11 µM. In addition, the IC50 with HepG2 stood at 26.8 ± 3.22 µM. Also, in the series on MCF-7, the IC50 came to 48.4 ± 2.21 µM. For the same compound, in the series with Hela, the IC50 worked out at 38.4 ± 1.01 µM. Moreover, the IC50 in the series on WI-38 was 126 ± 7.83 µM.
As for `CC(O)CNC(=O)CCCCCNC(=O)c1ccc2ccccc2c1` (centres unmarked) [a11, N-(6-((2-hydroxypropyl)amino)-6-oxohexyl)-2-naphthamide], the melting point was 111.6 to 113.6 °C. In addition, in the series with A549, the IC50 is 26.6 ± 2.81 µM. In the series on HepG2, the IC50 is 29.2 ± 3.22 µM. In the series on MCF-7, the IC50 is 38.4 ± 2.12 µM. The IC50 in the series with Hela was found to be 21.8 ± 2.42 µM. For the same compound, in the series on WI-38, the IC50 came to 109 ± 4.63 µM.
With `CC(O)CNC(=O)CCCCCNC(=O)c1ccc2c(c1)OCO2` (centres unmarked) [a12, N-(6-((2-hydroxypropyl)amino)-6-oxohexyl) benzo [d][1,3] dioxole-5-carboxamide], the melting point lay in the range of 123.6 to 125.3 °C. In addition, the IC50 with A549 came to 28.4 ± 2.01 µM. In the series on HepG2, the IC50 is 37.6 ± 2.89 µM. Besides, the IC50 in the series with MCF-7 is 44.6 ± 4.62 µM. Moreover, the IC50 with Hela stood at 35.6 ± 0.89 µM. In addition, in the series with WI-38, the IC50 was determined as 147 ± 3.82 µM.
Take `O=C(CCCCCNC(=O)c1ccccc1)NCCO` [b1, N-(6-((2-hydroxyethyl)amino)-6-oxohexyl) benzamide]: the melting point lay in the range of 111.2 to 114.5 °C. Also, in the series with A549, the IC50 was determined as 33.1 ± 0.96 µM. Moreover, in the series with HepG2, the IC50 amounted to 84.5 ± 1.33 µM. The IC50 with MCF-7 came to 94.3 ± 15.3 µM. Further, the IC50 with Hela was 90.4 ± 2.21 µM. Also, in the series with WI-38, the IC50 amounted to 194 ± 5.32 µM.
In the case of `O=C(CCCCCNC(=O)c1ccc(F)cc1)NCCO` [b2, 4-fluoro-N-(6-((2-hydroxyethyl)amino)-6-oxohexyl) benzamide], the melting point was in the range of 131.2 to 132.9 °C.
`O=C(CCCCCNC(=O)c1ccc(Cl)cc1)NCCO` [b3, 4-chloro-N-(6-((2-hydroxyethyl)amino)-6-oxohexyl) benzamide] came in with a melting point of 112.4 to 115.9 °C.
For the compound `O=C(CCCCCNC(=O)c1ccc(Br)cc1)NCCO` [b4, 4-bromo-N-(6-((2-hydroxyethyl)amino)-6-oxohexyl) benzamide], the melting point was in the range of 115.7 to 118.7 °C.
Regarding `O=C(CCCCCNC(=O)c1ccc(I)cc1)NCCO` [b5, N-(6-((2-hydroxyethyl)amino)-6-oxohexyl)-4-iodobenzamide], the melting point lay in the range of 150.4 to 150.9 °C. Moreover, the IC50 in the series on A549 came to 48.3 ± 0.92 µM. In addition, the IC50 in the series on HepG2 came out at 90.3 ± 8.18 µM. Moreover, in the series on MCF-7, the IC50 was determined as 64.5 ± 11.1 µM. Besides, the IC50 in the series with Hela was 61 ± 5.31 µM. Besides, in the series on WI-38, the IC50 was determined as 130 ± 5.02 µM.
For `Cc1ccc(C(=O)NCCCCCC(=O)NCCO)cc1` [b6, N-(6-((2-hydroxyethyl)amino)-6-oxohexyl)-4-methylbenzamide], the IC50 in the series on A549 was 26.9 ± 4.79 µM; in the series on HepG2 it was 77.2 ± 4.43 µM; in the series on MCF-7, 99.2 ± 1.9 µM; in the series with Hela it was 59.7 ± 2.67 µM; in the series on WI-38, 144 ± 8.05 µM.
Consider `Cc1cc(C)cc(C(=O)NCCCCCC(=O)NCCO)c1` [b7, N-(6-((2-hydroxyethyl)amino)-6-oxohexyl)-3,5-dimethylbenzamide], for which the melting point lay within 110.1 to 111.8 °C. Also, the half-inhibitory concentration (IC50) in the series with A549 turned out to be 32.3 ± 3.13 µM. Moreover, the IC50 in the series on HepG2 turned out to be 88 ± 9.39 µM. In the series on MCF-7, the IC50 was determined as 83.6 ± 23.2 µM. Besides, the IC50 in the series with Hela amounted to 96.8 ± 2.09 µM. Moreover, the IC50 in the series on WI-38 is 184 ± 7.16 µM.
`O=C(CCCCCNC(=O)c1ccc(C(F)(F)F)cc1)NCCO` [b9, N-(6-((2-hydroxyethyl)amino)-6-oxohexyl)-4-(trifluoromethyl) benzamide] displayed a melting point of 105 to 106.3 °C.
Consider `O=C(CCCCCNC(=O)c1ccc2c(c1)OCO2)NCCO` [b10, N-(6-((2-hydroxyethyl)amino)-6-oxohexyl) benzo[d][1,3] dioxole-5-carboxamide], for which the melting point lay in the range of 94.5 to 96.7 °C. The IC50 in the series with A549 amounted to 28.2 ± 0.87 µM. The IC50 in the series on HepG2 stood at 33.9 ± 2.71 µM. In addition, the half-inhibitory concentration (IC50) in the series with MCF-7 stood at 93.2 ± 3.53 µM. For the same compound, in the series on Hela, the IC50 is 38.1 ± 1.28 µM. The IC50 in the series with WI-38 is 193 ± 6.53 µM.
For the compound `CN(C)c1ccc(C(=O)NCCCCCC(=O)NCCO)cc1` [b11, 4-(dimethylamino)-N-(6-((2-hydroxyethyl)amino)-6-oxohexyl) benzamide], the melting point lay within 120.4 to 122.3 °C.
For `O=C(CCCCCNC(=O)c1ccc2ccccc2c1)NCCO` [b12, N-(6-((2-hydroxyethyl)amino)-6-oxohexyl)-2-naphthamide], the melting point fell in the range of 115.1 to 117.8 °C. In addition, in the series with A549, the IC50 turned out to be 33.4 ± 2.12 µM. Further, in the series on HepG2, the IC50 turned out to be 37.6 ± 6.14 µM. Besides, in the series on MCF-7, the IC50 is 98.7 ± 7.67 µM. For the same compound, the IC50 in the series with Hela came to 76.4 ± 6.78 µM. Also, in the series on WI-38, the IC50 amounted to 161 ± 8.64 µM.
